Laboratory results published in paper PMC4300089, “Structure-Guided Design of Selective Epac1 and Epac2 Agonists” (PLoS Biology, 2015).

Key:
Epac2^Δ280,K450A = molecular target: T1, Epac2^Δ280,K450A (Mus musculus, UniProt Q9EQZ6, K468A); assay: Epac activation assay, Epac2 K450A mutant; format: biochemical
T1 construct: made in house
T1 sequence (Q9EQZ6 281-993 isoform Q9EQZ6-3 K450A): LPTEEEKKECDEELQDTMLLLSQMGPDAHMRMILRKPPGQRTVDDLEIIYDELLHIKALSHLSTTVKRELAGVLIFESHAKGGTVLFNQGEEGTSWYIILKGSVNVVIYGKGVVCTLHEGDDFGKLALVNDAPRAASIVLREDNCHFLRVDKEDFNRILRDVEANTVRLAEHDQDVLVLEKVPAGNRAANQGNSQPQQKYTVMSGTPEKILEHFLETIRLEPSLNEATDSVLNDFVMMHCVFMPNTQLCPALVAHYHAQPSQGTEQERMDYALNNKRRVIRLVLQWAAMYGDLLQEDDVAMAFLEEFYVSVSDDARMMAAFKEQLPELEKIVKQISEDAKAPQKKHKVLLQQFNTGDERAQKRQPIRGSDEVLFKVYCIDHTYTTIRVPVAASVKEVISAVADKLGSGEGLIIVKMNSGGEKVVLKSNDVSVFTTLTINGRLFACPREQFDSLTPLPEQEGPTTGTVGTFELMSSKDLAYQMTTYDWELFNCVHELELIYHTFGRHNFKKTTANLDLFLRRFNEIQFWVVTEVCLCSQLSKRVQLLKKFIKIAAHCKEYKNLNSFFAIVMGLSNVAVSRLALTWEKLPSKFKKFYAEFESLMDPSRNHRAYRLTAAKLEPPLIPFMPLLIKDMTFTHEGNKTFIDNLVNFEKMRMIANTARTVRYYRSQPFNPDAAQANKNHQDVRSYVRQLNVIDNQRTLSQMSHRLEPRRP
Experimental: Murine Epac2 was used as all previous structural studies were performed with it.
The activity of Epac was determined by a fluorescence assay. […] The fluorescence intensity of Rap1B•mGDP is approximately twice that of free mGDP, and thus, nucleotide exchange can be observed as a decay in fluorescence upon the addition of excess unlabeled GDP.

Epac1 = molecular target: T2, Epac1 (Homo sapiens, UniProt O95398); assay: Epac activation assay, Epac1; format: biochemical
T2 construct: made in house
T2 sequence (O95398 150-881 isoform O95398-3): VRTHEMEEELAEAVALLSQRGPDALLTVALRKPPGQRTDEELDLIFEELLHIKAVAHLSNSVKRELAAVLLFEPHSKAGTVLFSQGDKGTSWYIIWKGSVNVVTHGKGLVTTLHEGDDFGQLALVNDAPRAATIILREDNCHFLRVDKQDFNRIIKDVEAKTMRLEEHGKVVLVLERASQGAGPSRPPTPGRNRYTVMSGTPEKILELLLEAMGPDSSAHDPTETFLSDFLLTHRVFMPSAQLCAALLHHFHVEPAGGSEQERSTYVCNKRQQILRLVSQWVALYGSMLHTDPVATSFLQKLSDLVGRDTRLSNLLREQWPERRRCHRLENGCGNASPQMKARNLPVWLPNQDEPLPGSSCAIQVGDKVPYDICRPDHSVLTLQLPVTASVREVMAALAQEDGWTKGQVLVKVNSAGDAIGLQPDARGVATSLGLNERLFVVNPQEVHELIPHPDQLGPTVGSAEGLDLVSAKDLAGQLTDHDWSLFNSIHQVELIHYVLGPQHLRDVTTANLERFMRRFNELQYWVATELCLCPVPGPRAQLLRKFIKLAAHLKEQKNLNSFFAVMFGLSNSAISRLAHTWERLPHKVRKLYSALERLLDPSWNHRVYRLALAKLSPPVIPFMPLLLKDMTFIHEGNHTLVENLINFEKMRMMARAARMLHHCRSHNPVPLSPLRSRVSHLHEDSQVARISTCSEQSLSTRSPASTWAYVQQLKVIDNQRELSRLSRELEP

Nc1ncnc2c1ncn2C1OC2COP(O)(=S)OC2C1O (stereo not shown) [S-000, Sp-cAMPS]
kobs (Epac2^Δ280,K450A; 0.01 μM compound): 2.9e-05 s⁻¹ | kobs (Epac2^Δ280,K450A; 0.03 μM compound): 3.7e-05 s⁻¹ | kobs (Epac2^Δ280,K450A; 0.05 μM compound): 4.5e-05 s⁻¹ | kobs (Epac2^Δ280,K450A; 0.08 μM compound): 5.2e-05 s⁻¹ | kobs (Epac2^Δ280,K450A; 0.2 μM compound): 9.9e-05 s⁻¹ | kobs (Epac2^Δ280,K450A; 0.3 μM compound): 0.000114 s⁻¹ | kobs (Epac2^Δ280,K450A; 0.5 μM compound): 0.000137 s⁻¹ | kobs (Epac2^Δ280,K450A; 0.6 μM compound): 0.000137 s⁻¹ | kobs (Epac2^Δ280,K450A; 0.7 μM compound): 0.000253 s⁻¹ | kobs (Epac2^Δ280,K450A; 0.8 μM compound): 0.000277 s⁻¹ | kobs (Epac2^Δ280,K450A; 1 μM compound): 0.000309 s⁻¹ | kobs (Epac2^Δ280,K450A; 2 μM compound): 0.000364 s⁻¹ | kobs (Epac2^Δ280,K450A; 3 μM compound): 0.00043 s⁻¹ | kobs (Epac2^Δ280,K450A; 4 μM compound): 0.000497 s⁻¹ | kobs (Epac2^Δ280,K450A; 5 μM compound): 0.000529 s⁻¹ | kobs (Epac2^Δ280,K450A; 6 μM compound): 0.000661 s⁻¹ | kobs (Epac2^Δ280,K450A; 7 μM compound): 0.000655 s⁻¹ | kobs (Epac2^Δ280,K450A; 8 μM compound): 0.000698 s⁻¹ | kobs (Epac2^Δ280,K450A; 10 μM compound): 0.000703 s⁻¹ | kobs (Epac2^Δ280,K450A; 20 μM compound): 0.000752 s⁻¹ | kobs (Epac2^Δ280,K450A; 30 μM compound): 0.000754 s⁻¹ | kobs (Epac2^Δ280,K450A; 40 μM compound): 0.000809 s⁻¹ | kobs (Epac2^Δ280,K450A; 50 μM compound): 0.000778 s⁻¹ | kobs (Epac2^Δ280,K450A; 60 μM compound): 0.000824 s⁻¹ | kobs (Epac2^Δ280,K450A; 70 μM compound): 0.000828 s⁻¹ | kobs (Epac2^Δ280,K450A; 80 μM compound): 0.000833 s⁻¹ | kobs (Epac2^Δ280,K450A; 100 μM compound): 0.000821 s⁻¹

Nc1ncnc2c1nc(SCc1ccccc1)n2[C@@H]1O[C@@H]2CO[P@](O)(=S)O[C@H]2[C@H]1O [S-220, Sp-8-BnT-cAMPS]
kobs (Epac1; 0.01 μM compound): 1.6e-05 s⁻¹ | kobs (Epac1; 0.05 μM compound): 1.5e-05 s⁻¹ | kobs (Epac1; 0.08 μM compound): 1.6e-05 s⁻¹ | kobs (Epac1; 0.1 μM compound): 1.7e-05 s⁻¹ | kobs (Epac1; 0.2 μM compound): 1.7e-05 s⁻¹ | kobs (Epac1; 0.3 μM compound): 2e-05 s⁻¹ | kobs (Epac1; 0.5 μM compound): 2.2e-05 s⁻¹ | kobs (Epac1; 0.6 μM compound): 2.5e-05 s⁻¹ | kobs (Epac1; 0.7 μM compound): 2.7e-05 s⁻¹ | kobs (Epac1; 0.8 μM compound): 2.8e-05 s⁻¹ | kobs (Epac1; 1 μM compound): 4.3e-05 s⁻¹ | kobs (Epac1; 2 μM compound): 5.8e-05 s⁻¹ | kobs (Epac1; 3 μM compound): 7.9e-05 s⁻¹ | kobs (Epac1; 4 μM compound): 9.2e-05 s⁻¹ | kobs (Epac1; 5 μM compound): 0.000102 s⁻¹ | kobs (Epac1; 6 μM compound): 0.000128 s⁻¹ | kobs (Epac1; 7 μM compound): 0.000149 s⁻¹ | kobs (Epac1; 8 μM compound): 0.000153 s⁻¹ | kobs (Epac1; 10 μM compound): 0.000213 s⁻¹ | kobs (Epac1; 20 μM compound): 0.000263 s⁻¹ | kobs (Epac1; 30 μM compound): 0.000312 s⁻¹ | kobs (Epac1; 40 μM compound): 0.00033 s⁻¹ | kobs (Epac1; 50 μM compound): 0.000328 s⁻¹ | kobs (Epac1; 60 μM compound): 0.000336 s⁻¹ | kobs (Epac1; 70 μM compound): 0.000338 s⁻¹ | kobs (Epac1; 80 μM compound): 0.000331 s⁻¹ | AC50 (Epac1; Epac1): 13 µM | ability to reach half-maximal cAMP activity (Epac1; Epac1): cannot activate Epac1 to the level of half-maximal cAMP-activity | Rel. kmax (Epac1; Epac1, maximal activity relative to cAMP): 0.3 | kobs (Epac2^Δ280,K450A; 0.001 μM compound): 3.1e-05 s⁻¹ | kobs (Epac2^Δ280,K450A; 0.003 μM compound): 3.7e-05 s⁻¹ | kobs (Epac2^Δ280,K450A; 0.005 μM compound): 4.4e-05 s⁻¹ | kobs (Epac2^Δ280,K450A; 0.008 μM compound): 5.2e-05 s⁻¹ | kobs (Epac2^Δ280,K450A; 0.02 μM compound): 0.00011 s⁻¹ | kobs (Epac2^Δ280,K450A; 0.03 μM compound): 0.000139 s⁻¹ | kobs (Epac2^Δ280,K450A; 0.04 μM compound): 0.000168 s⁻¹ | kobs (Epac2^Δ280,K450A; 0.05 μM compound): 0.000199 s⁻¹ | kobs (Epac2^Δ280,K450A; 0.06 μM compound): 0.000232 s⁻¹ | kobs (Epac2^Δ280,K450A; 0.07 μM compound): 0.00026 s⁻¹ | kobs (Epac2^Δ280,K450A; 0.08 μM compound): 0.000277 s⁻¹ | kobs (Epac2^Δ280,K450A; 0.1 μM compound): 0.000306 s⁻¹ | kobs (Epac2^Δ280,K450A; 0.2 μM compound): 0.000564 s⁻¹ | kobs (Epac2^Δ280,K450A; 0.3 μM compound): 0.000705 s⁻¹ | kobs (Epac2^Δ280,K450A; 0.4 μM compound): 0.000743 s⁻¹ | kobs (Epac2^Δ280,K450A; 0.5 μM compound): 0.000763 s⁻¹ | kobs (Epac2^Δ280,K450A; 0.6 μM compound): 0.000845 s⁻¹ | kobs (Epac2^Δ280,K450A; 0.7 μM compound): 0.000882 s⁻¹ | kobs (Epac2^Δ280,K450A; 0.8 μM compound): 0.000882 s⁻¹ | kobs (Epac2^Δ280,K450A; 1 μM compound): 0.000894 s⁻¹ | kobs (Epac2^Δ280,K450A; 2 μM compound): 0.000904 s⁻¹ | kobs (Epac2^Δ280,K450A; 3 μM compound): 0.000886 s⁻¹ | kobs (Epac2^Δ280,K450A; 4 μM compound): 0.000912 s⁻¹ | kobs (Epac2^Δ280,K450A; 5 μM compound): 0.000879 s⁻¹ | kobs (Epac2^Δ280,K450A; 6 μM compound): 0.00102 s⁻¹ | kobs (Epac2^Δ280,K450A; 7 μM compound): 0.00106 s⁻¹ | kobs (Epac2^Δ280,K450A; 8 μM compound): 0.00109 s⁻¹ | kobs (Epac2^Δ280,K450A; 10 μM compound): 0.00103 s⁻¹ | kmax-value (Epac2^Δ280,K450A; Epac2^Δ280,K450A): reduced to that of S-000
